Reference: article PMC11505029, “Isatin Bis-Imidathiazole Hybrids Identified as FtsZ Inhibitors with On-Target Activity Against Staphylococcus aureus” (Antibiotics, 2024)

Assays:
C. albicans ATCC 10231 = assay: broth microdilution antimicrobial activity, C. albicans reference strain; assay type: cell-based, Candida albicans; conditions: 100 μM, growth relative to positive control, mean ± SD
Method: Reference bacterial strains of Staphylococcus aureus (ATCC 25923), Escherichia coli (ATCC 25922), and Candida albicans (ATCC 10231) were used in this study as Gram-positive, Gram-negative, and fungal models, respectively. These reference strains were purchased from the American Type Culture Collection (ATCC, Manassas, VA, USA); bacterial cultures were routinely grown at 37 °C on 5% blood agar plate, while fungal cultures on Sabouraud Dextrose Agar (Biolife Italiana S.r.l., Milan, Italy).
The dry powder of the isatin derivatives was resuspended in dimethylsulfoxide (DMSO) at 20 mM and used as stock solutions. For biological investigations, compounds were used in the range 100–0.78 µM, and the solvent in the corresponding percentage range.
The antimicrobial activity of the compounds was assessed by a well-established broth microdilution procedure in microtiter plates and in compliance with the Clinical and laboratory Standard Institute (CLSI) guidelines (Clinical and Laboratory Standards Institute, Wayne, PA, USA). In short, microbial inocula were prepared at 0.5 McFarland in PBS and, subsequently, bacterial suspensions were diluted 1:200 in Mueller–Hinton broth (Sigma-Aldrich, St. Louis, MO, USA), while fungal inoculum was diluted 1:20 in RPMI-1640 medium (Gibco®, ThermoFisher Scientific Inc., Waltham, MA, USA), containing 2% glucose and 0.3% levo-glutamine buffered to pH 7.0 with 0.165 M 3-(N-morpholino)propanesulfonic acid (MOPS). A total of 100 µL of these microbial suspensions were introduced in a 96-well microplate and incubated with 100 µL of the compounds, two-fold serially diluted in the range of 100–0.19 µM. Positive controls (microbial suspensions in regular media), negative controls (only compounds), and solvent controls (microbial suspensions incubated with DMSO dilutions) were included in the tests. The plate was incubated at 37 °C for 24 h, and subsequently, the optical density at 630 nm (OD630nm) was spectrophotometrically measured. Each experiment was carried out with three technical replicates (i.e., three wells per sample) and repeated at least two times for statistical power. […] IC50 values, corresponding to the concentration of the compound giving rise to an inhibition of growth of 50%, were obtained by interpolation on dose–response curves generated by plotting the percentages of growth inhibition, relative to the positive control (set to 100% of growth), as a function of the tested concentrations (on a logarithm scale). Statistical analysis was carried out using GraphPad Prism version 9.4.1 for Windows (GraphPad Software, San Diego, CA, USA, www.graphpad.com).

[1] = test system: S. aureus ATCC 25923 biofilm; assay: antibiofilm activity, crystal violet staining; assay type: cell-based, Staphylococcus aureus; conditions: 200–25 µM; inhibition of biofilm production; CV staining
Method: For the evaluation of the bacterial biofilm formation, an established protocol with minor modifications was used. In short, a bacterial suspension of S. aureus ATCC 25923 was prepared in TSB (Tryptic Soy broth (TSB, Sigma-Aldrich, St. Louis, MO, USA) supplemented with 1% of glucose and adjusted to a final density of 10^5 CFU/mL. Aliquots of 100 µL of the culture were transferred to a 96-well flat-bottom polystyrene microplate, and then incubated at 37 °C for 90 min to promote bacterial adhesion. Thereafter, wells were slowly rinsed with PBS to remove non-attached cells, and 100 µL of medium containing the 2-fold serial dilutions of the compounds were added. After incubation at 37 °C for 24 h, the free-floating cells were removed, and the biofilms were carefully washed with PBS, and incubated for 1 h at 60 °C. Bacterial biomass was quantified by a standardized crystal violet (CV) staining. Briefly, 100 µL of CV solution (0.1% in water) were added to each well containing a completely air-dried biofilm, and incubated for 30 min at 37 °C. […] Finally, the colored supernatants were transferred to a new microplate and the OD550nm was read. The inhibitory effect of the compounds on biofilm production was evaluated in comparison to the positive control (S. aureus grown in absence of compounds), and negative control (only medium).

S. aureus MRSA 1 = assay: dose-response against clinical isolate MRSA 1; assay type: cell-based; conditions: Staphylococcus aureus, mean [95% confidence interval]
Method: The antimicrobial activity of the compounds was assessed by a well-established broth microdilution procedure in microtiter plates and in compliance with the Clinical and laboratory Standard Institute (CLSI) guidelines (Clinical and Laboratory Standards Institute, Wayne, PA, USA). In short, microbial inocula were prepared at 0.5 McFarland in PBS and, subsequently, bacterial suspensions were diluted 1:200 in Mueller–Hinton broth (Sigma-Aldrich, St. Louis, MO, USA), while fungal inoculum was diluted 1:20 in RPMI-1640 medium (Gibco®, ThermoFisher Scientific Inc., Waltham, MA, USA), containing 2% glucose and 0.3% levo-glutamine buffered to pH 7.0 with 0.165 M 3-(N-morpholino)propanesulfonic acid (MOPS). A total of 100 µL of these microbial suspensions were introduced in a 96-well microplate and incubated with 100 µL of the compounds, two-fold serially diluted in the range of 100–0.19 µM. Positive controls (microbial suspensions in regular media), negative controls (only compounds), and solvent controls (microbial suspensions incubated with DMSO dilutions) were included in the tests. The plate was incubated at 37 °C for 24 h, and subsequently, the optical density at 630 nm (OD630nm) was spectrophotometrically measured. Each experiment was carried out with three technical replicates (i.e., three wells per sample) and repeated at least two times for statistical power. […]

IC50 (S. aureus MRSA 1): 21.4 µM
Structure (SMILES): O=C1Nc2cc(OC(F)(F)F)ccc2C1(c1c(Cl)nc2sccn12)c1c(Cl)nc2sccn12 [Compound 11, 3,3-bis(6-Chloroimidazo[2,1-b]thiazol-5-yl)-6-(trifluoromethoxy)indolin-2-one]
Microbial growth, C. albicans (C. albicans ATCC 10231): did not inhibit the growth
activity at 100 µM (C. albicans ATCC 10231; Candida albicans, ATCC10231, read-out: Microbial growth, C. albicans): 108 ± 8.5%
biofilm biomass compared to the untreated control [1]: < 10%
